The record followed here is US10752588B2 (The Broad Institute, Inc., priority 2014, dated 2020).

Converted amounts (≈) assume the structure as drawn. Read-outs that look alike come from different tables or passages of the source.

The target in data set [1] is T1, human D2R/β-arrestin (Homo sapiens (Human), UniProt P14416). In words: β-Arrestin agonist assay (PathHunter). The format is cell-based. The note with it: CHO-K1 cell line expressing human D2R/β-arrestin. The gist of the method:
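Readout follows addition of Buffer:Emerald II:Galactor-Star reagent (19:5:1) to agonist-treated plates, measured as luminescence or fluorescence.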

Data set [2] deals with T1, human D2R/β-arrestin. Description: Gi/cAMP agonist assay (Lance Ultra cAMP, Forskolin). Type of data set: cell-based. To be noted: CHO-K1 cell line expressing human D2R/β-arrestin. The method in brief:
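Read-out was Lance Ultra competitive TR-FRET (Eu-cAMP tracer plus ULight-anti-cAMP) following forskolin-induced cAMP production. Before forskolin stimulation, compounds were pin-transferred onto the seeded cells for 10 min at 37 °C.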

A short description of another data set: Solubility in PBS. The format is physicochemical.
Data set [3] has as its system plasma protein. In words: Plasma protein binding, human. Type of data set: in vitro ADME. The note with it: for fraction unbound: plasma, read-out: Plasma Protein Binding % bound.
For data set [4], the system named is plasma protein. In words: Plasma protein binding, mouse. Type of data set: in vitro ADME. The note with it: for fraction unbound: plasma, read-out: Plasma Protein Binding % bound.
In data set [5] the test system is plasma protein. In words: Plasma protein binding, rat. To be noted: for fraction unbound: plasma, read-out: Plasma Protein Binding % bound. Type of data set: in vitro ADME.
The nature of the next data set: Plasma stability, human. The format is in vitro ADME.
A further data set can be described thus: Plasma stability, rat. The format is in vitro ADME.
Data set [6] can be described thus: Microsomal stability, human. Type of data set: in vitro ADME.
Data set [7] can be described thus: Microsomal stability, rat. Type of data set: in vitro ADME.
A further data set addresses D2 (Homo sapiens (Human), UniProt P14416). Description: D2 radioligand binding assay.
The target in data set [8] is T1, human D2R/β-arrestin. Description: cell-based. To be noted: β-arrestin Antagonist, CHO-K1 cell line expressing human D2R/β-arrestin; quinpirole used as agonist.
Description: (§1) The detection reagents are then added, and the read-out is detected.
(§2) Cells were prepared for assays by growing cultures for up to 2 weeks (from about 6-20 passages). A vial of frozen cells was thawed in a water bath held at 37° C. The cells were then transferred into a 50 ml tube with 10 ml growth media. The vial was rinsed with growth media and the contents transferred to the 50 ml tube. The 50 ml tube was centrifuged at 1200 rpm for 5 minutes at room temperature. […] When the cells reached about 90% confluence (approximately 3 days between passages), the cells were passaged and used for either the agonist or antagonist assays as described below.
(§3) The cells were prepared for β-arrestin assays as described above. The assays were performed using a PathHunter® β-Arrestin Detecting Kit (DiscoveRX). The cells were grown on 225 mm dishes, then washed once with 1×PBS (Cellgro), followed by digestion with 2.5 ml 1× Detachment reagent (DRX 92-0009) for approximately 2 minutes.
Data set [9] has as its target T1, human D2R/β-arrestin. Description: cell-based. The note with it: cAMP Antagonist, CHO-K1 cell line expressing human D2R/β-arrestin; quinpirole used as agonist.
Data set [10] can be described thus: Microsomal stability, mouse.
The target in data set [11] is T1, human D2R/β-arrestin. To be noted: read-out: β-arrestin Antagonist.
Description: as §1, §2, §3
The target of data set [12] is T1, human D2R/β-arrestin. The note with it: read-out: cAMP Antagonist.
The next data set has as its system Caco2. Description: Caco2 permeability. The format is in vitro ADME. Also noted: unit not given beside the values. The note with it: for Caco2 A-B: A-B direction; for Caco2 B-A: B-A direction.

T1 sequence (P14416 whole entry): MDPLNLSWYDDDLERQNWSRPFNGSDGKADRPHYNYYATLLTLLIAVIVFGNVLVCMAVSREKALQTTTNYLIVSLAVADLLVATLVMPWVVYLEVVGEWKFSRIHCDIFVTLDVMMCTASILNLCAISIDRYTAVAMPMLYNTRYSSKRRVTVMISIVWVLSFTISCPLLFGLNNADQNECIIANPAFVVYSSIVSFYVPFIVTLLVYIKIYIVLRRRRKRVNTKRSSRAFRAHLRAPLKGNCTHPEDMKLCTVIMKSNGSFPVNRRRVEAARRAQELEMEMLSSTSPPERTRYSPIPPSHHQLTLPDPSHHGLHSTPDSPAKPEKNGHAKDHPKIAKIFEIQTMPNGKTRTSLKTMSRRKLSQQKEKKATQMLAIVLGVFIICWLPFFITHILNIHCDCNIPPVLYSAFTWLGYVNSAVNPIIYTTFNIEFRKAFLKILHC
Sequence of D2 (P14416 whole entry): as above

What is called EC50 is the midpoint of the concentration-response curve. One may read the solubility as how much of the substance goes into solution per volume. By Ki is commonly meant the equilibrium dissociation constant of an inhibitor or competing ligand from its target. With `O=C(NC(c1ccc(Cl)cc1)c1ccccn1)C1CCN(CCn2ccc(=O)cc2)CC1` (stereo not shown) [Compound 11], the EC50 on human D2R/β-arrestin [1] and on human D2R/β-arrestin [2] was > 30 µM each time. Also, the solubility in the data set “Solubility in PBS” (aqueous buffer) is > 500 µM. For the same molecule, the results for the fraction unbound in the data set with plasma protein [3], in the data set on plasma protein [4] and in the data set on plasma protein [5] were 0.485, 0.391 and 0.211, respectively. For the same molecule, the “Plasma Stability: % remaining after 5 hours” value (“Plasma Stability: % remaining” below) in the data set “Plasma stability, human” amounted to 98.2%; in “Plasma stability, rat”, 100%; in “Plasma stability, mouse”, 89.5%. Further, the figures for the “Microsomal Stability: % remaining after 60 minutes” value (shortened to “Microsomal Stability: % remaining”) in data set [6], in [7] and in data set [10] were 95%, 100% and 100%, respectively. Moreover, the Ki on D2 fell in the range of 10 to 30 µM. For the same molecule, the IC50 at human D2R/β-arrestin [8] is > 30 µM; on human D2R/β-arrestin [9], 10 to 30 µM.

Take `O=C(NC(c1ccc(Cl)cc1)c1ccccn1)C1CCN(CCOc2ccc3ccc(=O)[nH]c3c2)CC1` (stereo not shown) [Compound 15]: the EC50 at human D2R/β-arrestin [1] and on human D2R/β-arrestin [2] was > 30 µM throughout. Also, the solubility in the data set “Solubility in PBS” amounted to 4.1 µM (≈ 2.12 µg/mL). The “Plasma Protein Binding % bound” value in the data set on plasma protein [3] turned out to be 97.7%; in the data set with plasma protein [4], 97.4%; in the data set on plasma protein [5], 99.0%. Besides, the “Plasma Stability: % remaining” value worked out at 96% in the data set “Plasma stability, human”; 91% in the data set “Plasma stability, rat”; 100% in “Plasma stability, mouse”. For the same molecule, the figures for the “Microsomal Stability: % remaining” value in data set [6], in [7] and in data set [10] were 56%, 68% and 44%, respectively. For the same molecule, the IC50 at human D2R/β-arrestin [11] is 10 to 30 µM; at human D2R/β-arrestin [12], > 30 µM.

For the molecule `O=C(NC(c1ccc(Cl)cc1)c1ccccn1)C1CCN(CCOc2ccc3cccnc3c2)CC1` (stereo not shown) [Compound 16], the EC50 on human D2R/β-arrestin [1] is 1 to 10 µM; on human D2R/β-arrestin [2] it was < 0.1 µM. Further, in “Solubility in PBS” (aqueous buffer), the solubility was determined as 14 µM (≈ 7.01 µg/mL). Further, the fraction unbound in the data set on plasma protein [3] worked out at 0.01; in the data set on plasma protein [4] it was 0.023; in the data set on plasma protein [5] it was 0.021. In addition, the “Plasma Stability: % remaining” value is listed as 98% in the data set “Plasma stability, human”; 97% in “Plasma stability, rat”; 94% in the data set “Plasma stability, mouse”. Also, the “Microsomal Stability: % remaining” value in data set [6] came to 34%; in data set [7] it was 75%; in data set [10], 45%. The Ki on D2 fell in the range of 10 to 30 µM. In addition, the IC50 at human D2R/β-arrestin [8] and on human D2R/β-arrestin [9] was > 30 µM throughout.

Consider `O=C(NC(c1ccc(F)cc1)c1ccccn1)C1CCN(CCOc2ccccc2)CC1` (stereo not shown) [Compound 25], for which the results for the concentration giving a half-maximal response (EC50) on human D2R/β-arrestin [1] and at human D2R/β-arrestin [2] were > 30 µM and 10 to 30 µM, respectively. Also, the “Caco2 A-B” value with Caco2 is 33.7. For the same molecule, the “Caco2 B-A” value in the data set on Caco2 is given as 50.5. Moreover, the solubility in “Solubility in PBS” (aqueous buffer) stood at 452 µM (≈ 196 µg/mL). In addition, the fraction unbound in the data set on plasma protein [3] came to 0.08; in the data set with plasma protein [4], 0.047; with plasma protein [5], 0.03. Besides, the “Plasma Stability: % remaining” value worked out at 100% in “Plasma stability, human”; 94.5% in the data set “Plasma stability, rat”; 97% in “Plasma stability, mouse”. For the same molecule, the entries for the “Microsomal Stability: % remaining” value in data set [6], in data set [7] and in [10] were 93%, 100% and 76%, respectively. Besides, the Ki on D2 lay within 1 to 10 µM. For the same molecule, the results for the IC50 on human D2R/β-arrestin [8] and on human D2R/β-arrestin [9] were 1 to 10 µM and 10 to 30 µM, respectively.

Turning to `O=C(NC(c1ccccn1)c1ccccc1F)C1CCN(CCOc2ccccc2)CC1` (stereo not shown) [Compound 28], the values for the EC50 on human D2R/β-arrestin [1] and at human D2R/β-arrestin [2] were > 30 µM and 0.1 to 1 µM, respectively. The molecule further gave a solubility in the data set “Solubility in PBS” of 434 µM (≈ 188 µg/mL). Further, the figures for the “Plasma Protein Binding % bound” value with plasma protein [3], in the data set on plasma protein [4] and in the data set on plasma protein [5] were 75.3%, 72.2% and 76.7%, respectively. Further, the “Plasma Stability: % remaining” value is given as 100% in “Plasma stability, human”; 99% in the data set “Plasma stability, rat”; 95% in “Plasma stability, mouse”. Also, the “Microsomal Stability: % remaining” value was 87% in data set [6], 78% in [7] and 52% in data set [10]. Moreover, the IC50 at human D2R/β-arrestin [11] is 1 to 10 µM; at human D2R/β-arrestin [12] it was > 30 µM.

Regarding `O=C(NC(c1ccc(Cl)cc1)c1ccccc1F)C1CCN(CCOc2ccccc2)CC1` (stereo not shown) [Compound 40, N((4-chlorophenyl)(2-fluorophenyl)methyl)-1-(2-phenoxyethyl) piperidine-4-carboxamide], the EC50 on human D2R/β-arrestin [1] and on human D2R/β-arrestin [2] was > 30 µM in each case. Moreover, the “Caco2 A-B” value with Caco2 was found to be 4.4. In the data set on Caco2, the “Caco2 B-A” value worked out at 1.9. Moreover, the concentration in solution in “Solubility in PBS” (aqueous buffer) (solubility) was 0.4 µM (≈ 0.187 µg/mL). For the same molecule, the fraction unbound in the data set with plasma protein [3] worked out at 0.011; with plasma protein [4], 0.01; with plasma protein [5] it was 0.023. Further, the “Plasma Stability: % remaining” value in “Plasma stability, human” turned out to be 100%; in “Plasma stability, rat” it was 90%; in the data set “Plasma stability, mouse”, 100%. Besides, the “Microsomal Stability: % remaining” value in [6] came to 45%; in data set [7], 57%; in data set [10] it was 50%. Also, the inhibitory constant (Ki) at D2 is 1 to 10 µM. For the same molecule, the IC50 at human D2R/β-arrestin [8] and at human D2R/β-arrestin [9] was 0.1 to 1 µM throughout.

With `O=C(NC(c1ccc(F)cc1)c1ccc(Cl)cc1)C1CCN(CCOc2ccccc2)CC1` (stereo not shown) [Compound 42], the values for the EC50 on human D2R/β-arrestin [1] and on human D2R/β-arrestin [2] were > 30 µM and 0.1 to 1 µM, respectively. The solubility in “Solubility in PBS” (aqueous buffer) was < 0.1 µM. Further, the fraction unbound worked out at 0.007 with plasma protein [3], 0.007 with plasma protein [4] and 0.014 with plasma protein [5]. In addition, the “Plasma Stability: % remaining” value stood at 98% in “Plasma stability, human”; 93% in “Plasma stability, rat”; 100% in the data set “Plasma stability, mouse”. For the same molecule, the “Microsomal Stability: % remaining” value in data set [6] is reported as 40%; in data set [7] it was 70%; in data set [10], 59%. For the same molecule, the inhibition constant (Ki) on D2 was 0.1 to 1 µM. Besides, the IC50 on human D2R/β-arrestin [8] and on human D2R/β-arrestin [9] was 0.1 to 1 µM throughout.

For `O=C(NC(c1ccc(F)cc1)c1ccccn1)C1CCN(CCOc2ccccc2C(F)(F)F)CC1` (stereo not shown) [Compound 52], the EC50 at human D2R/β-arrestin [1] and on human D2R/β-arrestin [2] was > 30 µM in each case. The “Caco2 A-B” value in the data set on Caco2 is listed as 12.5. The “Caco2 B-A” value in the data set with Caco2 is recorded as 9.0. The same molecule came in with a solubility in the data set “Solubility in PBS” (aqueous buffer) of 27 µM (≈ 13.5 µg/mL). Moreover, the values for the fraction unbound in the data set on plasma protein [3], with plasma protein [4] and in the data set with plasma protein [5] were 0.009, 0.009 and 0.021, respectively. Also, the “Plasma Stability: % remaining” value is given as 84% in “Plasma stability, human”; 55% in “Plasma stability, rat”; 89% in the data set “Plasma stability, mouse”. For the same molecule, the “Microsomal Stability: % remaining” value in data set [6] amounted to 46%; in data set [7], 7%; in data set [10], 7%. The IC50 on human D2R/β-arrestin [8] and on human D2R/β-arrestin [9] was < 0.1 µM each time.

Take `O=C(NC(c1ccc(F)cc1)c1ccccn1)C1CCN(CCOc2ccccc2F)CC1` (stereo not shown) [Compound 54, 1-(2-(2-fluorophenoxy)ethyl)-N-((4-fluorophenyl)(pyridin-2-yl)methyl) piperidine-4-carboxamide]: the EC50 on human D2R/β-arrestin [1] and at human D2R/β-arrestin [2] was > 30 µM in each case. In addition, the “Caco2 A-B” value with Caco2 is recorded as 28.4. Moreover, the “Caco2 B-A” value in the data set on Caco2 is recorded as 39.3. Moreover, the solubility in “Solubility in PBS” (aqueous buffer) is > 500 µM. Also, the fraction unbound in the data set on plasma protein [3] worked out at 0.042; in the data set with plasma protein [4], 0.039; in the data set with plasma protein [5], 0.027. For the same molecule, the “Plasma Stability: % remaining” value in the data set “Plasma stability, human” is recorded as 96%; in “Plasma stability, rat”, 78%; in the data set “Plasma stability, mouse” it was 100%. Also, the “Microsomal Stability: % remaining” value in data set [6] is listed as 70%; in [7], 66%; in data set [10] it was 29%. Moreover, the IC50 on human D2R/β-arrestin [8] and on human D2R/β-arrestin [9] was 0.1 to 1 µM each time.
